# In patent publication US20190375787A1, “PEPTIDOMIMETICS AND THEIR USE IN THERAPY” (INSTYTUT […]. Z O.O., priority 2016, published 2019):
# pIC50: −log10 of the molar value. Square brackets hold non-standard residues; d marks the D form. Peptide text beside a SMILES is read from it. * marks the point of attachment. X1 = C(=Cc1ccccc1)CN1CCN(*)CC1
# Columns and labels:
# Type in all cases: cell-based
# [1] = test system: Colo205 (intestinal cancer) cells; assay: Inhibition of cell migration (transwell insert), Colo205; conditions: Colo205, IC50 concentration, concentrations below 400 μM
# Description: (§1) Inhibition of cell migration was evaluated using 24-well plates with PET (polyethylene terephthalate) membrane transwell insert. The experiment was performed using IC50 concentrations of the tested compounds, and migration of the cells, that means, the number of the cells passing through the membrane to the bottom side of the membrane, was observed. The cells which passed the membrane, were stained with crystal violet and counted.
# [2] = test system: SW620 (intestinal cancer) cells; assay: Inhibition of cell migration (transwell insert), SW620; conditions: SW620, IC50 concentration
# Description: as §1
# [3] = test system: SW620 (intestinal cancer); assay: Cell growth, colorimetric MTT or XTT, SW620
# Description: (§2) Influence of the compounds on the cell growth was evaluated by colorimetric method, using MTT or XTT reagent, values of IC50 were determined. The tests were based on reduction of the salt by mitochondrial dehydrogenase from metabolically active cells. The colored product of the reaction was determined colorimetrically, and in result the number of living cells was assigned.
# [4] = test system: SW480 (intestinal cancer) cells; assay: Inhibition of cell migration (transwell insert), SW480; conditions: SW480, IC50 concentration
# Description: as §1
# [5] = test system: HT29 (intestinal cancer) cells; assay: Inhibition of cell migration (transwell insert), HT29; conditions: HT29, IC50 concentration, concentrations below 400 μM
# Description: as §1
# [6] = test system: Colo205 (intestinal cancer); assay: Cell growth, colorimetric MTT or XTT, Colo205
# Description: as §2
# HT29 (intestinal cancer) = assay: Cell growth, colorimetric MTT or XTT, HT29
# Description: as §2
# [7] = test system: human pancreatic cancer cell line CFPAC-1; assay: MTS cell viability test on CFPAC-1 cells; conditions: 24 h incubation; for activity (cell viability) compared with gem and 5FU: CFPAC-1, concentrations 0.01-0.1 mM; for activity relative to the reference drugs (gem, 5FU): CFPAC-1, higher concentrations (above 0.1 mM)
# From the text: Phenylalanyl-trans-1-cinnamylpiperazine was acylated with t-Boc-Tyr-D-Ala using TBTU/DIPEA methodology. The reaction product was precipitated with 10% NaHCO3 and separated from the reaction mixture by filtration. The solid was washed three times with water, until neutral pH of the filtrate was reached. The t-butyloxycarbonyl group was removed using TFA:DCM (1:1). The crude product was purified by preparative HPLC in a gradient of water/methanol with addition of 0.1% trifluoroacetic acid. The counterion was changed to Cl^− using the Dowex ion-exchange resin. The purified product, tyrosyl-D-alanyl-phenylalanyl-cinnamylpiperazine hydrochloride (further called TyrDAlaPheCyn) was tested on human pancreatic cancer cell line CFPAC-1, in comparison to commercial drugs, gemcitabine (gem) and 5-fluorouracil (5FU). The cells were grown on IMDM medium supplemented with 10% (v/v h.i. FBS, 2 mM L-glutamine and 1% (v/v) penicillin-streptomycin, in 37° C., in humidified atmosphere, with 5% CO2. The cells were seeded in 96 wells plate (3×10^3 cells per well) and incubated for 24 h (37° C., 5% CO2) in the culture medium. Next, TyrDAlaPheCyn, gem and 5FU in 5% DMSO solutions were added, to give in wells concentrations 0 (5% DMSO); 0.01; 0.05; 0.1; 0.5; and 1 mM. The plates were incubated for 24 h (37° C., 5% CO2). Cell viability was determined using colorimetric test MTS (3-(4,5-dimethylthiazol-2-yl)-5-(3-carboxymethoxyphenyl)-2-(4-sulfophenyl)-2H-tetrazolium). To each well, 20 μl of the reagent was added, and the plates were incubated in the same conditions for 1 h. The absorbance intensity at 490 nm was read. […] However, at higher concentrations, activity of the tested compound was even 4 times higher than for the reference drugs.
# Tryptophyl-trans-1-cinnamylpiperazine was acylated with t-Boc-Tyr-D-Ala using TBTU/DIPEA methodology. The reaction product was precipitated with 10% NaHCO3 and separated from the reaction mixture by filtration. The solid was washed three times with water, until neutral pH of the filtrate was reached. The t-butyloxycarbonyl group was removed using TFA:DCM (1:1). […] The cells were grown on DMDM medium supplemented with 10% (v/v h.i. FBS, 2 mM L-glutamine and 1% (v/v) penicillin-streptomycin, in 37° C., in humidified atmosphere, with 5% CO2. The cells were seeded in 96 wells plate (3×10^3 cells per well) and incubated for 24 h (37° C., 5% CO2) in the culture medium. Next, TyrDAlaTrpCyn, gem and 5FU in 5% DMSO solutions were added, to assure in wells concentrations 0 (5% DMSO); 0.01; 0.05; 0.1; 0.5; and 1 mM. The plates were incubated for 24 h (37° C., 5% CO2). Cell viability was determined using colorimetric test MTS (3-(4,5-dimethylthiazol-2-yl)-5-(3-carboxymethoxyphenyl)-2-(4-sulfophenyl)-2H-tetrazolium). […] The absorbance intensity at 490 nm was read. […]
smiles,measurement,setting,value
"C[C@@H](NC(=O)[C@@H](N)Cc1ccc(O)cc1)C(=O)NCC(=O)N[C@@H](Cc1ccccc1)C(=O)N1CCN(CC=Cc2ccccc2)CC1.Cl [TyrDAlaGlyPheCyn, tyrosyl-D-alanyl-glicyl-phenylalanyl-1-cinnamylpiperazine hydrochloride]",inhibition of cell migration,[1],≤ 60%
same,inhibition of cell migration,[2]; concentrations below 450 μM,≤ 40%
same,pIC50,[3],> 3.35
same,inhibition of cell migration,[4]; concentrations below 400 μM,≤ 60%
same,inhibition of cell migration,[5],≤ 70%
"C[C@H](O)[C@@H](NC(=O)[C@@H](N)Cc1ccc(O)cc1)C(=O)NCC(=O)N[C@@H](Cc1c[nH]c2ccccc12)C(=O)N1CCN(CC=Cc2ccccc2)CC1.Cl [TyrDThrGlyTrpCyn, tyrosyl-D-threonyl-glicyl-tryptophyl-1-cinnamylpiperazine hydrochloride] (H-Y[dT]GW-X1)",pIC50,[6],> 3.19
same,inhibition of cell migration,[2]; concentrations below 600 μM,≤ 30%
same,pIC50,HT29 (intestinal cancer),> 3.22
same,pIC50,[3],> 3.22
same,inhibition of cell migration,[4]; concentrations below 600 μM,≤ 40%
"C[C@H](O)[C@@H](NC(=O)[C@@H](N)Cc1ccc(O)cc1)C(=O)NCC(=O)N[C@@H](Cc1ccccc1)C(=O)N1CCN(CC=Cc2ccccc2)CC1.Cl [TyrDThrGlyPheCyn, tyrosyl-D-threonyl-glicyl-phenylalanyl-1-cinnamylpiperazine hydrochloride] (H-Y[dT]GF-X1)",pIC50,[3],> 3.19
same,inhibition of cell migration,[4]; concentrations below 500 μM,≤ 45%
"C[C@@H](NC(=O)[C@@H](N)Cc1ccc(O)cc1)C(=O)NCC(=O)N[C@@H](Cc1c[nH]c2ccccc12)C(=O)N1CCN(CC=Cc2ccccc2)CC1.Cl [TyrDAlaGlyTrpCyn, tyrosyl-D-alanyl-glicyl-tryptophyl-1-cinnamylpiperazine hydrochloride] (H-Y[dA]GW-X1)",inhibition of cell migration,[1],≤ 40%
same,inhibition of cell migration,[2]; concentrations below 500 μM,≤ 30%
same,pIC50,[3],> 3.30
same,inhibition of cell migration,[4]; concentrations below 400 μM,≤ 30%
same,inhibition of cell migration,[5],≤ 50%
"C[C@@H](NC(=O)[C@@H](N)Cc1ccc(O)cc1)C(=O)N[C@@H](Cc1c[nH]c2ccccc12)C(=O)N1CCN(CC=Cc2ccccc2)CC1.Cl [TyrDAlaTrpCyn, tyrosyl-D-alanyl-tryptophyl-cinnamylpiperazine hydrochloride]",activity (cell viability) compared with gem and 5FU,[7],similar
same,"activity relative to the reference drugs (gem, 5FU)",[7],4 times
"C[C@@H](NC(=O)[C@@H](N)Cc1ccc(O)cc1)C(=O)N[C@@H](Cc1ccccc1)C(=O)N1CCN(CC=Cc2ccccc2)CC1.Cl [TyrDAlaPheCyn, tyrosyl-D-alanyl-phenylalanyl-cinnamylpiperazine hydrochloride]",activity (cell viability) compared with gem and 5FU,[7],similar
same,"activity relative to the reference drugs (gem, 5FU)",[7],4 times
